Results: BigSolDB 2.1

Nc1ccccc1N
solubility (mole fraction)
Conditions	in acetonitrile	in ethanol	in methanol	in water
283.15 K	0.0558	0.0139	0.0516	0.00447
285.65 K	0.0595	0.0144	0.0533	0.00467
288.15 K	0.0643	0.0148	0.0554	0.00495
290.65 K	0.0685	0.0154	0.0572	0.00517
293.15 K	0.0752	0.016	0.0596	0.00545
295.65 K	0.0795	0.0165	0.0613	0.00573
298.15 K	0.0858	0.0172	0.0637	0.00608
300.65 K	0.0916	0.0177	0.0658	0.0064
303.15 K	0.0987	0.0184	0.0685	0.00678
305.65 K	0.104	0.019	0.0708	0.00717
308.15 K	0.113	0.0199	0.0732	0.00762
310.65 K	0.12	0.0205	0.0758	0.00803
313.15 K	0.128	0.0213	0.0795	0.00855
315.65 K	0.135	0.0221	0.0828	0.00923
318.15 K	0.143	0.0233	0.0868	0.0102
